≈ marks a conversion by molar mass, not a printed value.
Key:
Type in all cases: functional
[1] = tested on: Staphylococcus aureus; experiment: Antibacterial activity against quinolone-resistant Staphylococcus aureus CCARM 3505 clinical isolate after 24 hrs by broth microdilution method; settings: CCARM 3505, 24 h
[2] = tested on: Staphylococcus aureus; experiment: Ratio of norfloxacin MIC to compound MIC for quinolone-resistant Staphylococcus aureus CCARM 3519 clinical isolate
[3] = tested on: Staphylococcus aureus; experiment: Antibacterial activity against methicillin-resistant Staphylococcus aureus CCARM 3167 clinical isolate after 24 hrs by broth microdilution method; settings: CCARM 3167, 24 h
[4] = tested on: Staphylococcus aureus; experiment: Antibacterial activity against Staphylococcus aureus KCTC 503 after 24 hrs by broth microdilution method; settings: KCTC 503, 24 h
[5] = tested on: Escherichia coli; experiment: Antibacterial activity against Escherichia coli CCARM 1356 after 24 hrs by broth microdilution method; settings: CCARM 1356, 24 h
[6] = tested on: Staphylococcus aureus; experiment: Antibacterial activity against Staphylococcus aureus KCTC 209 after 24 hrs by broth microdilution method; settings: KCTC 209, 24 h
[7] = tested on: Staphylococcus aureus; experiment: Ratio of norfloxacin MIC to compound MIC for quinolone-resistant Staphylococcus aureus CCARM 3505 clinical isolate
[8] = tested on: Staphylococcus aureus; experiment: Antibacterial activity against methicillin-resistant Staphylococcus aureus CCARM 3506 clinical isolate after 24 hrs by broth microdilution method; settings: CCARM 3506, 24 h
[9] = tested on: Staphylococcus aureus; experiment: Antibacterial activity against quinolone-resistant Staphylococcus aureus CCARM 3519 clinical isolate after 24 hrs by broth microdilution method; settings: CCARM 3519, 24 h
[10] = tested on: Staphylococcus aureus; experiment: Ratio of norfloxacin MIC to compound MIC for methicillin-resistant Staphylococcus aureus CCARM 3167 clinical isolate
[11] = tested on: Staphylococcus aureus; experiment: Ratio of norfloxacin MIC to compound MIC for methicillin-resistant Staphylococcus aureus CCARM 3506 clinical isolate
[12] = tested on: Staphylococcus aureus; experiment: Antibacterial activity against Staphylococcus aureus RN4220 after 24 hrs by broth microdilution method; settings: RN4220, 24 h

SMILES | MIC [1] | Ratio [2] | MIC [3] | MIC [4] | MIC [5] | MIC [6] | Ratio [7] | MIC [8] | MIC [9] | Ratio [10] | Ratio [11] | MIC [12]
O=C(/C=C/c1ccc(/C=C2\SC(=S)N([C@@H](Cc3ccccc3)C(=O)O)C2=O)cc1)c1ccc2ccccc2c1 | 2 µg/mL (≈ 3.64 µM) | 2 | 2 µg/mL (≈ 3.64 µM) | 8 µg/mL (≈ 14.6 µM) | > 64 µg/mL | 8 µg/mL (≈ 14.6 µM) | 2 | 4 µg/mL (≈ 7.28 µM) | 2 µg/mL (≈ 3.64 µM) | 2 | 2 | 2 µg/mL (≈ 3.64 µM)
O=C(/C=C/c1ccc(/C=C2\SC(=S)N([C@@H](Cc3ccccc3)C(=O)O)C2=O)cc1)c1cccc(Cl)c1 | 8 µg/mL (≈ 15 µM) | 2 | 2 µg/mL (≈ 3.74 µM) | 16 µg/mL (≈ 30 µM) | > 64 µg/mL | 16 µg/mL (≈ 30 µM) | 2 | 4 µg/mL (≈ 7.49 µM) | 8 µg/mL (≈ 15 µM) | 2 | 2 | 2 µg/mL (≈ 3.74 µM)
O=C(/C=C/c1ccc(/C=C2\SC(=S)N([C@@H](Cc3ccccc3)C(=O)O)C2=O)cc1)c1ccc(Cl)cc1 | 4 µg/mL (≈ 7.49 µM) | 2 | 2 µg/mL (≈ 3.74 µM) | 8 µg/mL (≈ 15 µM) | > 64 µg/mL | 8 µg/mL (≈ 15 µM) | 2 | 4 µg/mL (≈ 7.49 µM) | 4 µg/mL (≈ 7.49 µM) | 2 | 2 | 2 µg/mL (≈ 3.74 µM)
O=C(/C=C/c1ccc(/C=C2\SC(=S)N([C@@H](Cc3ccccc3)C(=O)O)C2=O)cc1)c1ccc(Cl)cc1Cl | 4 µg/mL (≈ 7.04 µM) | 2 | 4 µg/mL (≈ 7.04 µM) | 16 µg/mL (≈ 28.1 µM) | > 64 µg/mL | 16 µg/mL (≈ 28.1 µM) | 2 | 4 µg/mL (≈ 7.04 µM) | 16 µg/mL (≈ 28.1 µM) | 2 | 2 | 4 µg/mL (≈ 7.04 µM)
O=C(/C=C/c1ccc(/C=C2\SC(=S)N([C@@H](Cc3ccccc3)C(=O)O)C2=O)cc1)c1ccccc1Br | 4 µg/mL (≈ 6.91 µM) | 2 | 2 µg/mL (≈ 3.46 µM) | 16 µg/mL (≈ 27.7 µM) | > 64 µg/mL | 16 µg/mL (≈ 27.7 µM) | 2 | 4 µg/mL (≈ 6.91 µM) | 4 µg/mL (≈ 6.91 µM) | 2 | 2 | 2 µg/mL (≈ 3.46 µM)
O=C(/C=C/c1ccc(/C=C2\SC(=S)N([C@@H](Cc3ccccc3)C(=O)O)C2=O)cc1)c1cccc(Br)c1 | 8 µg/mL (≈ 13.8 µM) | 2 | 8 µg/mL (≈ 13.8 µM) | 16 µg/mL (≈ 27.7 µM) | > 64 µg/mL | 16 µg/mL (≈ 27.7 µM) | 2 | 8 µg/mL (≈ 13.8 µM) | 16 µg/mL (≈ 27.7 µM) | 2 | 2 | 8 µg/mL (≈ 13.8 µM)
O=C(/C=C/c1ccc(/C=C2\SC(=S)N([C@@H](Cc3ccccc3)C(=O)O)C2=O)cc1)c1ccc(Br)cc1 | 8 µg/mL (≈ 13.8 µM) | 2 | 2 µg/mL (≈ 3.46 µM) | 4 µg/mL (≈ 6.91 µM) | > 64 µg/mL | 4 µg/mL (≈ 6.91 µM) | 2 | 2 µg/mL (≈ 3.46 µM) | 2 µg/mL (≈ 3.46 µM) | 2 | 2 | 2 µg/mL (≈ 3.46 µM)
Cc1ccc(C(=O)/C=C/c2ccc(/C=C3\SC(=S)N([C@@H](Cc4ccccc4)C(=O)O)C3=O)cc2)cc1 | 8 µg/mL (≈ 15.6 µM) | 2 | 2 µg/mL (≈ 3.89 µM) | 8 µg/mL (≈ 15.6 µM) | > 64 µg/mL | 8 µg/mL (≈ 15.6 µM) | 2 | 2 µg/mL (≈ 3.89 µM) | 2 µg/mL (≈ 3.89 µM) | 2 | 2 | 2 µg/mL (≈ 3.89 µM)
Cc1ccc(C(=O)/C=C/c2ccc(/C=C3\SC(=S)N([C@@H](Cc4ccccc4)C(=O)O)C3=O)cc2)c(C)c1 | 8 µg/mL (≈ 15.2 µM) | 2 | 4 µg/mL (≈ 7.58 µM) | 16 µg/mL (≈ 30.3 µM) | > 64 µg/mL | 16 µg/mL (≈ 30.3 µM) | 2 | 4 µg/mL (≈ 7.58 µM) | 8 µg/mL (≈ 15.2 µM) | 2 | 2 | 4 µg/mL (≈ 7.58 µM)
COc1ccccc1C(=O)/C=C/c1ccc(/C=C2\SC(=S)N([C@@H](Cc3ccccc3)C(=O)O)C2=O)cc1 | 4 µg/mL (≈ 7.55 µM) | 2 | 8 µg/mL (≈ 15.1 µM) | 16 µg/mL (≈ 30.2 µM) | > 64 µg/mL | 16 µg/mL (≈ 30.2 µM) | 2 | 8 µg/mL (≈ 15.1 µM) | 16 µg/mL (≈ 30.2 µM) | 2 | 2 | 8 µg/mL (≈ 15.1 µM)
COc1cccc(C(=O)/C=C/c2ccc(/C=C3\SC(=S)N([C@@H](Cc4ccccc4)C(=O)O)C3=O)cc2)c1 | 8 µg/mL (≈ 15.1 µM) | 2 | 8 µg/mL (≈ 15.1 µM) | 16 µg/mL (≈ 30.2 µM) | > 64 µg/mL | 16 µg/mL (≈ 30.2 µM) | 2 | 8 µg/mL (≈ 15.1 µM) | 8 µg/mL (≈ 15.1 µM) | 2 | 2 | 4 µg/mL (≈ 7.55 µM)
COc1ccc(C(=O)/C=C/c2ccc(/C=C3\SC(=S)N([C@@H](Cc4ccccc4)C(=O)O)C3=O)cc2)cc1 | 4 µg/mL (≈ 7.55 µM) | 2 | 4 µg/mL (≈ 7.55 µM) | 16 µg/mL (≈ 30.2 µM) | > 64 µg/mL | 16 µg/mL (≈ 30.2 µM) | 2 | 4 µg/mL (≈ 7.55 µM) | 4 µg/mL (≈ 7.55 µM) | 2 | 2 | 4 µg/mL (≈ 7.55 µM)
CC(=O)Nc1ccc(C(=O)/C=C/c2ccc(/C=C3\SC(=S)N([C@@H](Cc4ccccc4)C(=O)O)C3=O)cc2)cc1 | 4 µg/mL (≈ 7.19 µM) | 2 | 4 µg/mL (≈ 7.19 µM) | 16 µg/mL (≈ 28.7 µM) | > 64 µg/mL | 16 µg/mL (≈ 28.7 µM) | 2 | 2 µg/mL (≈ 3.59 µM) | 4 µg/mL (≈ 7.19 µM) | 2 | 2 | 4 µg/mL (≈ 7.19 µM)
O=C(/C=C/c1ccc(/C=C2\SC(=S)N([C@@H](Cc3ccccc3)C(=O)O)C2=O)cc1)c1ccccc1 | 8 µg/mL (≈ 16 µM) | 2 | 4 µg/mL (≈ 8.01 µM) | 8 µg/mL (≈ 16 µM) | > 64 µg/mL | 16 µg/mL (≈ 32 µM) | 2 | 4 µg/mL (≈ 8.01 µM) | 4 µg/mL (≈ 8.01 µM) | 2 | 2 | 4 µg/mL (≈ 8.01 µM)
O=C(O)[C@H](Cc1ccccc1)N1C(=O)/C(=C\c2ccc(OCc3cccc(F)c3)cc2)SC1=S | 8 µg/mL (≈ 16.2 µM) | 2 | 8 µg/mL (≈ 16.2 µM) | 16 µg/mL (≈ 32.4 µM) | > 64 µg/mL | 16 µg/mL (≈ 32.4 µM) | 2 | 8 µg/mL (≈ 16.2 µM) | 8 µg/mL (≈ 16.2 µM) | 2 | 2 | 4 µg/mL (≈ 8.1 µM)
O=C(O)[C@H](Cc1ccccc1)N1C(=O)/C(=C\c2ccc(OCc3ccc(F)cc3)cc2)SC1=S | 8 µg/mL (≈ 16.2 µM) | 2 | 8 µg/mL (≈ 16.2 µM) | 8 µg/mL (≈ 16.2 µM) | > 64 µg/mL | 8 µg/mL (≈ 16.2 µM) | 2 | 8 µg/mL (≈ 16.2 µM) | 8 µg/mL (≈ 16.2 µM) | 2 | 2 | 4 µg/mL (≈ 8.1 µM)
O=C(O)[C@H](Cc1ccccc1)N1C(=O)/C(=C\c2ccc(OCc3ccccc3Cl)cc2)SC1=S | 4 µg/mL (≈ 7.84 µM) | 2 | 4 µg/mL (≈ 7.84 µM) | 8 µg/mL (≈ 15.7 µM) | > 64 µg/mL | 8 µg/mL (≈ 15.7 µM) | 2 | 4 µg/mL (≈ 7.84 µM) | 4 µg/mL (≈ 7.84 µM) | 2 | 2 | 4 µg/mL (≈ 7.84 µM)
O=C(O)[C@H](Cc1ccccc1)N1C(=O)/C(=C\c2ccc(OCc3cccc(Cl)c3)cc2)SC1=S | 4 µg/mL (≈ 7.84 µM) | 2 | 4 µg/mL (≈ 7.84 µM) | 8 µg/mL (≈ 15.7 µM) | > 64 µg/mL | 8 µg/mL (≈ 15.7 µM) | 2 | 4 µg/mL (≈ 7.84 µM) | 4 µg/mL (≈ 7.84 µM) | 2 | 2 | 2 µg/mL (≈ 3.92 µM)
O=C(O)[C@H](Cc1ccccc1)N1C(=O)/C(=C\c2ccc(OCc3ccc(Cl)cc3)cc2)SC1=S | 4 µg/mL (≈ 7.84 µM) | 2 | 4 µg/mL (≈ 7.84 µM) | 8 µg/mL (≈ 15.7 µM) | > 64 µg/mL | 8 µg/mL (≈ 15.7 µM) | 2 | 4 µg/mL (≈ 7.84 µM) | 4 µg/mL (≈ 7.84 µM) | 2 | 2 | 2 µg/mL (≈ 3.92 µM)
O=C(O)[C@H](Cc1ccccc1)N1C(=O)/C(=C\c2ccc(OCc3ccc(Cl)cc3Cl)cc2)SC1=S | 8 µg/mL (≈ 14.7 µM) | 2 | 8 µg/mL (≈ 14.7 µM) | 8 µg/mL (≈ 14.7 µM) | > 64 µg/mL | 8 µg/mL (≈ 14.7 µM) | 2 | 16 µg/mL (≈ 29.4 µM) | 8 µg/mL (≈ 14.7 µM) | 2 | 2 | 2 µg/mL (≈ 3.67 µM)
O=C(O)[C@H](Cc1ccccc1)N1C(=O)/C(=C\c2ccc(OCc3cccc(Br)c3)cc2)SC1=S | 4 µg/mL (≈ 7.21 µM) | 2 | 4 µg/mL (≈ 7.21 µM) | 4 µg/mL (≈ 7.21 µM) | > 64 µg/mL | 4 µg/mL (≈ 7.21 µM) | 2 | 4 µg/mL (≈ 7.21 µM) | 8 µg/mL (≈ 14.4 µM) | 2 | 2 | 2 µg/mL (≈ 3.61 µM)
O=C(O)[C@H](Cc1ccccc1)N1C(=O)/C(=C\c2ccc(OCc3ccc(Br)cc3)cc2)SC1=S | 8 µg/mL (≈ 14.4 µM) | 2 | 4 µg/mL (≈ 7.21 µM) | 8 µg/mL (≈ 14.4 µM) | > 64 µg/mL | 8 µg/mL (≈ 14.4 µM) | 2 | 8 µg/mL (≈ 14.4 µM) | 8 µg/mL (≈ 14.4 µM) | 2 | 2 | 2 µg/mL (≈ 3.61 µM)
Cc1ccc(COc2ccc(/C=C3\SC(=S)N([C@@H](Cc4ccccc4)C(=O)O)C3=O)cc2)cc1 | 8 µg/mL (≈ 16.3 µM) | 2 | 4 µg/mL (≈ 8.17 µM) | 16 µg/mL (≈ 32.7 µM) | > 64 µg/mL | 8 µg/mL (≈ 16.3 µM) | 2 | 8 µg/mL (≈ 16.3 µM) | 8 µg/mL (≈ 16.3 µM) | 2 | 2 | 4 µg/mL (≈ 8.17 µM)
